In the supplement of paper PMC11451515:

What was measured:
Settings in all cases: 48 h
SEM cells [1] = test: cell viability relative to DMSO control; higher = less cytotoxic
In short: (§1)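 Library compounds in DMSO were pin-dosed into 1536-well plates (5 μl) holding NOMO1 or SEM (500 cells/well) or P12-Ichikawa (1000 cells/well) leukemia cells, across an 11-point threefold series of 47 μM to 0.79 nM. Each cell line had been adapted for at least four passages in each medium. CellTiter-Glo One luminescence was read after 48 h at 37°C. Viability is the per-plate percentage relative to DMSO wells, with cell-free wells as background.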

P12-Ichikawa [2] = test: as above
In short: as §1

NOMO1 [3] = test: as above
In short: as §1

SEM cells [4] = test: AUC of viability dose-response curve (% viability x log10 dose units); higher = less sensitive
In short: (§2)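 Leukemia cells adapted to each medium (500 or 1000 cells/well, 1536-well plates) were exposed to library compounds in DMSO for 48 h at 37°C at 11 threefold doses, 47 μM to 0.79 nM. Luminescence by CellTiter-Glo One was normalised per plate to DMSO and cell-free wells, then fitted with a four-parameter log-logistic curve on log10 dose. Curves above full viability were scaled and quality-control failures removed before area under the curve was integrated by trapezoidal rule.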

P12-Ichikawa [5] = test: as above
In short: as §2

NOMO1 [6] = test: as above
In short: as §2

CC(C)[N+]1(C)C2CCC1CC(OC(=O)C(CO)c1ccccc1)C2.O.[Br-] (stereo not drawn)
cell viability [%]
Settings	NOMO1 [3]	P12-Ichikawa [2]	SEM cells [1]
HPLM + 10% dialyzed FBS, 0.000781 µM	129	98.5	96
HPLM + 10% dialyzed FBS, 0.00234 µM	118	111	97.8
HPLM + 10% dialyzed FBS, 0.00702 µM	120	116	107
HPLM + 10% dialyzed FBS, 0.0211 µM	117	112	91.3
HPLM + 10% dialyzed FBS, 0.0632 µM	123	123	98.7
HPLM + 10% dialyzed FBS, 0.19 µM	119	124	108
HPLM + 10% dialyzed FBS, 0.569 µM	148	123	93.7
HPLM + 10% dialyzed FBS, 1.71 µM	134	109	113
HPLM + 10% dialyzed FBS, 5.12 µM	101	50	91.4
HPLM + 10% dialyzed FBS, 15.4 µM	58.8	14.1	69.4
HPLM + 10% dialyzed FBS, 46.1 µM	21.9	7.93	64.5
RPMI 5 mM glucose + 10% FBS, 0.000781 µM	103	125	111
RPMI 5 mM glucose + 10% FBS, 0.00234 µM	105	123	103
RPMI 5 mM glucose + 10% FBS, 0.00702 µM	95.1	129	106
RPMI 5 mM glucose + 10% FBS, 0.0211 µM	118	126	96.6
RPMI 5 mM glucose + 10% FBS, 0.0632 µM	108	128	125
RPMI 5 mM glucose + 10% FBS, 0.19 µM	123	125	119
RPMI 5 mM glucose + 10% FBS, 0.569 µM	101	137	105
RPMI 5 mM glucose + 10% FBS, 1.71 µM	116	132	108
RPMI 5 mM glucose + 10% FBS, 5.12 µM	109	127	85.9
RPMI 5 mM glucose + 10% FBS, 15.4 µM	92.3	52.5	40.7
RPMI 5 mM glucose + 10% FBS, 46.1 µM	48.6	13.8	42.3
RPMI 5 mM glucose + 10% dialyzed FBS, 0.000781 µM	115	113	93.2
RPMI 5 mM glucose + 10% dialyzed FBS, 0.00234 µM	115	113	98.2
RPMI 5 mM glucose + 10% dialyzed FBS, 0.00702 µM	119	119	109
RPMI 5 mM glucose + 10% dialyzed FBS, 0.0211 µM	110	117	109
RPMI 5 mM glucose + 10% dialyzed FBS, 0.0632 µM	132	124	120
RPMI 5 mM glucose + 10% dialyzed FBS, 0.19 µM	114	112	116
RPMI 5 mM glucose + 10% dialyzed FBS, 0.569 µM	127	118	123
RPMI 5 mM glucose + 10% dialyzed FBS, 1.71 µM	121	115	130
RPMI 5 mM glucose + 10% dialyzed FBS, 5.12 µM	105	102	90.2
RPMI 5 mM glucose + 10% dialyzed FBS, 15.4 µM	93.2	34	40.3
RPMI 5 mM glucose + 10% dialyzed FBS, 46.1 µM	60.7	19.3	41.9

AUC of viability dose-response curve
Settings	NOMO1 [6]	P12-Ichikawa [5]	SEM cells [4]
HPLM + 10% dialyzed FBS	423	383	449
RPMI 5 mM glucose + 10% FBS	457	427	423
RPMI 5 mM glucose + 10% dialyzed FBS	450	417	422
